Experimental data: paper PMC5469811, “Identification of GXXXXG motif in Chrysophsin-1 and its implication in the design of analogs with cell-selective antimicrobial and anti-endotoxin activities” (Scientific Reports, 2017)
≈ marks a conversion by molar mass, not a printed value. Residues, ends and D or L forms follow the SMILES beside them.

How the values were obtained:
[1] = test system: Bacillus subtilis (ATCC 6633); test: microbe, parasite or virus in culture; type: cell-based; details: ATCC 6633; read-out: Minimum inhibitory concentration (MIC)
Method: (§1) Antibacterial assay against various Gram-positive and Gram-negative strains of bacteria was performed by the serial two-fold dilution method according to the previously reported procedure, [36]. The antibacterial assays were repeated thrice and the averages of these MIC values were reported.

[2] = test system: Escherichia coli (ATCC 25922); test: microbe, parasite or virus in culture; type: cell-based; details: ATCC 25922; read-out: Minimum inhibitory concentration (MIC)
Method: as §1

[3] = test system: Escherichia coli (ATCC 9637); test: microbe, parasite or virus in culture; type: cell-based; details: ATCC 9637; read-out: Minimum inhibitory concentration (MIC)
Method: as §1

[4] = test system: Klebsiella pneumoniae (ATCC 27736); test: microbe, parasite or virus in culture; type: cell-based; details: ATCC 27736; read-out: Minimum inhibitory concentration (MIC)
Method: as §1

[5] = test system: Pseudomonas aeruginosa (ATCC BAA-427); test: microbe, parasite or virus in culture; type: cell-based; details: ATCC BAA-427; read-out: Minimum inhibitory concentration (MIC)
Method: as §1

[6] = test system: Staphylococcus aureus (ATCC 25923); test: microbe, parasite or virus in culture; type: cell-based; details: ATCC 25923; read-out: Minimum inhibitory concentration (MIC)
Method: as §1

[7] = test system: Staphylococcus aureus (ATCC 29213); test: microbe, parasite or virus in culture; type: cell-based; details: ATCC 29213; read-out: Minimum inhibitory concentration (MIC)
Method: as §1

[8] = test system: Staphylococcus aureus (ATCC 33592) Methicillin resistant Genatmicin resistant; test: microbe, parasite or virus in culture; type: cell-based; details: ATCC 33592; read-out: Minimum inhibitory concentration (MIC)
Method: as §1

[9] = test system: Staphylococcus aureus (ATCC 700698 MRSA); test: microbe, parasite or virus in culture; type: cell-based; details: ATCC 700698; read-out: Minimum inhibitory concentration (MIC)
Method: as §1

[10] = test system: Staphylococcus aureus (ATCC 700699 MRSA); test: microbe, parasite or virus in culture; type: cell-based; details: ATCC 700699; read-out: Minimum inhibitory concentration (MIC)
Method: as §1

[11] = test system: Staphylococcus aureus (BAA-44)MDR; test: microbe, parasite or virus in culture; type: cell-based; details: BAA-44; read-out: Minimum inhibitory concentration (MIC)
Method: as §1

[12] = test system: Candida albicans (ATCC 10231); test: microbe, parasite or virus in culture; type: cell-based; details: ATCC 10231, 48 h; read-out: Minimum inhibitory concentration (MIC)
Method: (§2) The anti- fungal activity of peptides was performed according to the standard micro broth dilution technique as per NCCLS guidelines. These plates were incubated in a moist chamber at 35 °C, and an absorbance at 492 nm was recorded on a VersaMax microplate reader after 48 h for C. albicans ATCC 10231 and C. parapsilosis ATCC 22019 and 72 h for C. neoformans.

[13] = test system: Candida parapsilosis (ATCC 22019); test: microbe, parasite or virus in culture; type: cell-based; details: ATCC 22019, 48 h; read-out: Minimum inhibitory concentration (MIC)
Method: as §2

[14] = test system: Cryptococcus neoformans; test: microbe, parasite or virus in culture; type: cell-based; details: 72 h; read-out: Minimum inhibitory concentration (MIC)
Method: as §2

[15] = test system: Sporothrix schenckii (Patient isolates); test: microbe, parasite or virus in culture; type: cell-based; details: 48 h; read-out: Minimum inhibitory concentration (MIC)
[16] = test system: E. coli (ATCC 25922); type: cell-based, Escherichia coli; details: ATCC 25922, 1 h
Method: (§3) E. coli ATCC25922 was grown to 10^6 CFU/ml in fresh MH broth with various divalent and monovalent salts at their physiological concentrations. Serial dilutions of chrysophsin-1 and its variants prepared with the same MH broth were added to the E. coli ATCC 25922 suspensions. The bacteria were incubated at 37 °C in a shaking incubator for 18 h and the MIC values of individual peptides against E. coli ATCC 25922 were determined. Thermal tolerance of Chrysophsin-1 and its variants was checked by incubating the peptides at 4 °C, 60 °C and 90 °C for 1 h prior to MIC determination. The antibacterial activity in presence of serum was carried out by adding a final concentration of 10% fetal bovine serum in the assay diluents containing 0.4% BSA, 0.02% glacial acetic acid. The subsequent steps in both the experiments were consistent with the MIC determination method.

[17] = test system: E. coli ATCC 25922; type: cell-based, Escherichia coli; details: ATCC 25922, 18 h
Method: as §3

[18] = test system: S. aureus (ATCC 25923); type: cell-based, Staphylococcus aureus; details: ATCC 25923, 1 h
Method: as §3

[19] = test system: E. coli ATCC 25922; test: Synergy with conventional antibiotics, checkerboard titration; type: cell-based, Escherichia coli
Method: The checkerboard titration method was followed to check the synergy of peptides with other antibiotics. First, 2-fold serial dilutions of the antibiotics and antimicrobial peptides were prepared. Subsequently, 50 μl each of different concentrations of antibiotics and of antimicrobial peptides was mixed and added into 100 μl of log phase bacteria culture in a 96-well plate. The plates were then incubated at 37 °C for 24 h. The fractional inhibitory concentration (FIC) index (FICI) was calculated as follows[39]: FICI=(MICofdrugAincombination)/(MICofdrugAalone)+(MICofdrugBincombination)/(MICofdrugB): FICI < 0.5 is considered to indicate synergy; 0.5 < FICI < 1.0 is considered additive; 1.0 < FICI < 4.0 is considered indifferent; and FICI > 4.0 is considered antagonism.

SMILES	MIC [1]	MIC [2]	MIC [3]	MIC [4]	MIC [5]	MIC [6]	MIC [7]	MIC [8]	MIC [9]	MIC [10]	MIC [11]	MIC [12]	MIC [13]	MIC [14]	MIC [15]	Antibacterial activity (MIC) after incubating peptide at 4 °C [16]	Antibacterial activity (MIC) after incubating peptide at 60 °C [16]	Antibacterial activity (MIC) after incubating peptide at 90 °C [16]	Antibacterial activity (MIC) in the presence of 10% FBS [17]	Antibacterial activity (MIC) in the presence of FeCl3 [17]	further results
CC[C@H](C)[C@H](NC(=O)[C@H](C)NC(=O)CNC(=O)[C@H](CCCCN)NC(=O)[C@@H](NC(=O)[C@H](CC(C)C)NC(=O)[C@H](Cc1c[nH]c2ccccc12)NC(=O)CNC(=O)[C@H](Cc1ccccc1)NC(=O)[C@@H](N)Cc1ccccc1)[C@@H](C)CC)C(=O)N[C@@H](Cc1c[nH]cn1)C(=O)N[C@@H](C)C(=O)N1CCC[C@H]1C(=O)N[C@@H](CCCCN)C(=O)N[C@@H](C)C(=O)N[C@H](C(=O)N[C@@H](Cc1c[nH]cn1)C(=O)N1CCC[C@H]1C(=O)N[C@@H](CC(C)C)C(=O)N[C@H](C(=O)N[C@@H](Cc1c[nH]cn1)C(=O)N[C@@H](CCCNC(=N)N)C(=O)N[C@@H](CCCNC(=N)N)C(=O)N[C@@H](CCCNC(=N)N)C(=O)N[C@@H](Cc1c[nH]cn1)C(N)=O)[C@@H](C)CC)[C@@H](C)CC [G13,18P-Chr-1] (H-FFGWLIKGAIHAPKAIHPLIHRRRH-NH2; N-terminus and C-terminus assumed)	3 µM (≈ 8.91 µg/mL)	4 µM (≈ 11.9 µg/mL)	6.8 µM (≈ 20.2 µg/mL)	27.2 µM (≈ 80.8 µg/mL)	13.6 µM (≈ 40.4 µg/mL)	3 µM (≈ 8.91 µg/mL)	3 µM (≈ 8.91 µg/mL)	1.6 µM (≈ 4.75 µg/mL)	3 µM (≈ 8.91 µg/mL)	3 µM (≈ 8.91 µg/mL)	3 µM (≈ 8.91 µg/mL)	>30 µM	>30 µM	>30 µM	>30 µM	4 µM	14 µM	17.2 µM	>33 µM	26 µM	Antibacterial activity (MIC) in the presence of KCl [17]: 6 µM; Antibacterial activity (MIC) in the presence of MgCl2 [17]: 20 µM; Antibacterial activity (MIC) in the presence of NH4Cl [17]: 5 µM; Antibacterial activity (MIC) in the presence of NaCl [17]: 20 µM; Antibacterial activity (MIC) in the presence of ZnCl2 [17]: 12 µM; Antibacterial activity (MIC) after incubating peptide at 4 °C [18]: 3 µM; Antibacterial activity (MIC) after incubating peptide at 60 °C [18]: >33 µM; Antibacterial activity (MIC) after incubating peptide at 90 °C [18]: >33 µM; interaction of peptide with chloramphenicol (by FICI) [19]: additivity
CC[C@H](C)[C@H](NC(=O)[C@H](C)NC(=O)[C@H](CCCCN)NC(=O)CNC(=O)[C@H](C)NC(=O)[C@H](Cc1c[nH]cn1)NC(=O)[C@@H](NC(=O)[C@H](C)NC(=O)[C@@H]1CCCN1C(=O)[C@H](CCCCN)NC(=O)[C@@H](NC(=O)[C@H](CC(C)C)NC(=O)[C@H](Cc1c[nH]c2ccccc12)NC(=O)CNC(=O)[C@H](Cc1ccccc1)NC(=O)[C@@H](N)Cc1ccccc1)[C@@H](C)CC)[C@@H](C)CC)C(=O)N[C@@H](Cc1c[nH]cn1)C(=O)NCC(=O)N[C@@H](CC(C)C)C(=O)N[C@H](C(=O)N[C@@H](Cc1c[nH]cn1)C(=O)N[C@@H](CCCNC(=N)N)C(=O)N[C@@H](CCCNC(=N)N)C(=O)N[C@@H](CCCNC(=N)N)C(=O)N[C@@H](Cc1c[nH]cn1)C(N)=O)[C@@H](C)CC [Peptide G8P-Chr-1] (H-FFGWLIKPAIHAGKAIHGLIHRRRH-NH2; N-terminus and C-terminus assumed)	3 µM (≈ 8.79 µg/mL)	4.1 µM (≈ 12 µg/mL)	3.3 µM (≈ 9.67 µg/mL)	3.3 µM (≈ 9.67 µg/mL)	6.8 µM (≈ 19.9 µg/mL)	3 µM (≈ 8.79 µg/mL)	1.6 µM (≈ 4.69 µg/mL)	0.8 µM (≈ 2.35 µg/mL)	1.6 µM (≈ 4.69 µg/mL)	1.6 µM (≈ 4.69 µg/mL)	1.6 µM (≈ 4.69 µg/mL)	3 µM (≈ 8.79 µg/mL)	6.8 µM (≈ 19.9 µg/mL)	6.8 µM (≈ 19.9 µg/mL)	13.6 µM (≈ 39.9 µg/mL)	4.1 µM	4.3 µM	8.3 µM	8.6 µM	4.1 µM	Antibacterial activity (MIC) in the presence of KCl [17]: 4.3 µM; Antibacterial activity (MIC) in the presence of MgCl2 [17]: 4.3 µM; Antibacterial activity (MIC) in the presence of NH4Cl [17]: 2.0 µM; Antibacterial activity (MIC) in the presence of NaCl [17]: 8.6 µM; Antibacterial activity (MIC) in the presence of ZnCl2 [17]: 2 µM; Antibacterial activity (MIC) after incubating peptide at 4 °C [18]: 3 µM; Antibacterial activity (MIC) after incubating peptide at 60 °C [18]: 4.3 µM; Antibacterial activity (MIC) after incubating peptide at 90 °C [18]: 8.6 µM; interaction of peptide with chloramphenicol (by FICI) [19]: synergy (FICI < 0.5 is considered to indicate synergy)
